The values that follow come from US4687780A, “Anti-tumor compounds of platinum” (Johnson Matthey PLC, priority 1985, dated 1987).

For one data set, the system named is ADJ/PC6A plasmacytoma. Kind of data set: activity against ADJ/PC6A plasmacytoma grown subcutaneously in mice, oral administration. The following applies: for ED90 (dose level causing a 90% reduction in tumor size): suspension in arachis oil. Format: in vivo, female Balb C^- mice. Here is the method:
(§1) Additionally, the same compounds were tested for activity against ADJ/PC6A plasmacytoma grown subcutaneously in female Balb C^- mice following oral administration as a suspension in arachis oil. Dosage levels were at 100μ mole/kg of body weight for pharmacokinetic tests to establish the extent of absorption into the systemic circulation.
(§2) Results are presented in terms of concentration (μg/ml) of Pt in the blood and cumulative percentage dose in urine, cage wash and faeces, all after specified time intervals. Results for anti-tumor effect are expressed as LD50 (mg/kg), ED90 (mg/kg), and TI (LD50 /ED90). The figures for LD50 (the dose level causing 50% deaths) and ED90 (the dose level causing a 90% reduction in tumor size) are determined by administering dosage levels ranging from lethal to non-tumor inhibitory. The therapeutic index (TI) is an indication of the selectivity of the compound as an anti-tumor agent.

Another data set relates to L1210 leukaemia. Kind of data set: anti-tumor activity against L1210 leukaemia in CDF1 male mice, i.p. single dose Day 1. The format is in vivo. Further details: median survival time (MST): unit not given here. The following applies: for % T/C (MST/MST control×100) / median survival time (MST): single dose Day 1; for number of mice alive (MA) / average weight change (AWC): single dose; for number of mice alive (MA): at Day 5; for average weight change (AWC): by Day 5. Here is the method: (§3) Compounds according to the invention were screened for anti-tumor activity against L1210 leukaemia and B16 melanoma in mice. The compounds were administered intraperitoneally as solutions or suspensions in water and "Tween" 80 as carrier to CDF1 male mice (L1210) and BDF1 female mice (B16). […] For each dose level, results are quoted in terms of median survival time (MST); the comparative effect (i.e. MST/MST control×100); average weight change (AWC) by Day 5 (L1210) or Day 6 (B16); and the number of mice alive (MA) at Day 5 (L1210) or Day 10 (B16).
(§4) Results were as follows for the compounds as prepared in Examples 3 and 4.
1. L1210 (1×10^6 cells): treatment consisted of single dose on Day 1.

A further data set relates to malignant tumor. The following applies: cited from earlier work.
The next data set concerns B16 melanoma. As to the kind of experiment: anti-tumor activity against B16 melanoma in BDF1 female mice, i.p. 9 daily doses. Further details: median survival time (MST): unit not given here. The format is in vivo. The following applies: for % T/C (MST/MST control×100) / median survival time (MST): 9 daily doses from Day 1; for number of mice alive (MA) / average weight change (AWC): 9 daily doses; for number of mice alive (MA): at Day 10; for average weight change (AWC): by Day 6. Here is the method:
as §3, §4
2. B16 (0.5 ml 10% BREI): treatment consisted of 9 daily doses beginning at Day 1.

The conditions of data set [1]: reported by Harrap; cited from earlier work.
Data set [2] can be described thus: LD50 (dose level causing 50% deaths), oral administration. Format: in vivo, female Balb C^- mice. The settings on record: suspension in arachis oil. Here is the method:
as §1, §2

A short description of data set [3]: pharmacokinetic tests: Pt in blood and cumulative percentage dose in urine, cage wash and faeces after oral administration. Format: in vivo, female Balb C^- mice. The settings on record: oral, JM-8 at 50 mg/kg. Here is the method: as §1, §2

Consider `N.N.[Cl][Pt][Cl]` [cisplatin, cis-diamminedichloroplatinum(II), reference compound], for which the “ED90 (dose level causing a 90% reduction in tumor size)” value in the data set on ADJ/PC6A plasmacytoma was found to be 24 mg/kg. The “% T/C (MST/MST control×100)” value is listed as 146% in the data set with L1210 leukaemia (4 mg/kg); 169% in the data set with L1210 leukaemia (6 mg/kg); 192% in the data set on L1210 leukaemia (8 mg/kg); 123% with L1210 leukaemia (10 mg/kg); 131% in the data set with B16 melanoma (0.4 mg/kg); 164% with B16 melanoma (0.8 mg/kg). In addition, the “% T/C (MST/MST control×100)” value was found to be 187% in the data set on B16 melanoma (1.6 mg/kg) and 231% in the data set with B16 melanoma (2.4 mg/kg). Moreover, the “median survival time (MST)” value in the data set on L1210 leukaemia (4 mg/kg) is 9.5; with L1210 leukaemia (6 mg/kg) it was 11.0; in the data set on L1210 leukaemia (8 mg/kg), 12.5; in the data set on L1210 leukaemia (10 mg/kg) it was 8.0; with B16 melanoma (0.4 mg/kg) it was 25.5; in the data set with B16 melanoma (0.8 mg/kg) it was 32.0. Further, the “median survival time (MST)” value is listed as 36.5 with B16 melanoma (1.6 mg/kg) and 45.0 in the data set on B16 melanoma (2.4 mg/kg). Besides, the “number of mice alive (MA)” value with L1210 leukaemia (4 mg/kg) is reported as 6/6; in the data set with L1210 leukaemia (6 mg/kg) it was 6/6; with L1210 leukaemia (8 mg/kg), 6/6; with L1210 leukaemia (10 mg/kg), 6/6; in the data set on B16 melanoma (0.4 mg/kg) it was 10/10; with B16 melanoma (0.8 mg/kg) it was 10/10. The “number of mice alive (MA)” value in the data set with B16 melanoma (1.6 mg/kg) and in the data set on B16 melanoma (2.4 mg/kg) was 10/10 in each case. Also, the “average weight change (AWC)” value with L1210 leukaemia (4 mg/kg) was -0.8 g; in the data set on L1210 leukaemia (6 mg/kg), -3.2 g; in the data set with L1210 leukaemia (8 mg/kg), -4.6 g; in the data set on L1210 leukaemia (10 mg/kg), -4.7 g; with B16 melanoma (0.4 mg/kg), -0.9 g; in the data set with B16 melanoma (0.8 mg/kg), -1.5 g. Further, the “average weight change (AWC)” value with B16 melanoma (1.6 mg/kg) is given as -3.1 g; in the data set on B16 melanoma (2.4 mg/kg) it was -3.9 g. The “treatment of malignant tumor” value in the data set with malignant tumor (certain forms of malignant tumor in humans) is “effective for the treatment of certain forms of malignant tumor in humans”.
In the case of `CCC(C(=O)[O-])C(=O)[O-].N.N.[Pt+2]` [JM-10, diammine(2-ethylmalonato)-platinum(II)], in data set [1], the screening results is “only moderately promising on screening results”.
In the case of `[NH2][Pt]1([NH2])[O]C(=O)C2(CCC2)C(=O)[O]1` [JM-8, reference compound], in the data set on ADJ/PC6A plasmacytoma, the “therapeutic index TI (LD50/ED90)” value was determined as 2.4. The “ED90 (dose level causing a 90% reduction in tumor size)” value in the data set on ADJ/PC6A plasmacytoma amounted to 99 mg/kg. The “LD50 (dose level causing 50% deaths)” value in data set [2] was found to be 235 mg/kg. In addition, the “% T/C (MST/MST control×100)” value turned out to be 100% in the data set with L1210 leukaemia (4 mg/kg); 121% in the data set on L1210 leukaemia (8 mg/kg); 143% with L1210 leukaemia (16 mg/kg); 171% in the data set on L1210 leukaemia (32 mg/kg); 150% in the data set on L1210 leukaemia (64 mg/kg); 86% in the data set with L1210 leukaemia (128 mg/kg). For the same molecule, the “% T/C (MST/MST control×100)” value with B16 melanoma (2 mg/kg) turned out to be 112%; with B16 melanoma (4 mg/kg) it was 115%; in the data set with B16 melanoma (8 mg/kg), 150%; in the data set with B16 melanoma (16 mg/kg) it was 176%; in the data set with B16 melanoma (32 mg/kg) it was 176%. Also, in the data set on malignant tumor (Phase I, reported by Harrap), the “Phase I clinical trial outcome” value is listed as “reasonably promising on a Phase I clinical trial”. Further, the “side-effects in Phase I clinical trial” value in the data set with malignant tumor (Phase I, reported by Harrap) is “myelosuppression and to a lesser extent vomiting remained troublesome”. Further, the “Blood conc. of Pt” value in data set [3] (1 hr) is reported as 2.4 μg/ml of whole blood; in data set [3] (2 hrs), 1.7 μg/ml of whole blood; in data set [3] (4 hrs), 0.72 μg/ml of whole blood; in data set [3] (7 hrs), 0.63 μg/ml of whole blood; in data set [3] (24 hrs), 0.25 μg/ml of whole blood; in data set [3] (48 hrs) it was 0.25 μg/ml of whole blood. Further, the results for the “Urine dose (cumulative %)” value in data set [3] (24 hrs) and in data set [3] (48 hrs) were 10.3% and 10.8%, respectively.
As to `N.N.O=C([O-])C(O)C(=O)[O-].[Pt+2]` [JM-5, diammine(2-hydroxymalonato)platinum(II)], the screening results in data set [1] was “only moderately promising on screening results”.
